The results in this text go back to patent US20190192524A1, “Modulators of Caspase-6” (The University of British Columbia, priority 2014, published 2019).

One data set has as its target T1, caspase-6 (Mus musculus, UniProt O08738).
T1 construct: endogenous in cells; host or cells: primary cortical neurons from FVB/N mice
T1 sequence (O08738 6-276): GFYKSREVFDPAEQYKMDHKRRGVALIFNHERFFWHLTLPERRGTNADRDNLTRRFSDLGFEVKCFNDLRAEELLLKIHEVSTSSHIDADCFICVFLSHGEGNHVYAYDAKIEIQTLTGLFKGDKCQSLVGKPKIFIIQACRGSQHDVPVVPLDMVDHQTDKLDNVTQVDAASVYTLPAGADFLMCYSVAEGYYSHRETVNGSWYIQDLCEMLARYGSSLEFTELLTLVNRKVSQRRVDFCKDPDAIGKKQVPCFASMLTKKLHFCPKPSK
The data set is described as follows: Lamin A cleavage in primary cortical neuronal culture treated with camptothecin. The format is cell-based, FVB/N mice. The settings on record: 10 uM compound; 10 uM camptothecin for 30 h. The protocol: Cortical neuronal cultures from FVB mice were prepared as described (Metzler et al, J Neurosci (2007) 27(9):2298). At day 10 in vitro, cells were treated with camptothecin, and after 30 h harvested by scraping in PBS supplemented with 1× complete protease inhibitor (Roche) and 4 mM Pefabloc. Cells were lysed by suspension in lysis buffer (50 mM Tris pH8, 150 mM NaCl, 1% Igepal, supplemented with 1× complete protease inhibitor (Roche) and 4 mM Pefabloc). Lysates were incubated on ice for 10 min, vortexed and sonicated for 4 sec before centrifugation at 21 000×g for 10 min at 4° C. Supernatants were saved, protein concentration determined with the Biorad DC assay and quantitative assessment of cleaved lamin A in neuronal lysates was performed with the Mesoscale ELISA method as described in Ehrnhoefer et al. PLoS One, 2011. 6(11):e27680.
Next, it was determined whether the PG-3d compound could inhibit caspase-6 within neuronal cells in an in vitro neuronal system which may be more relevant for the testing of therapeutics for neurodegeneration. Briefly, primary cortical neuronal cultures from FVB/N mice were treated with 10 uM camptothecin for 30 h starting at DIV10 in the presence or absence of 10 uM of the PG-3d compound.

In data set [1] the target is T2, full-length human caspase-6 (Homo sapiens, UniProt P55212).
T2 construct: DDK-tag (C); expressed in transfected cells; host or cells: COS-7
T2 sequence (P55212 with tags, fused parts or gaps): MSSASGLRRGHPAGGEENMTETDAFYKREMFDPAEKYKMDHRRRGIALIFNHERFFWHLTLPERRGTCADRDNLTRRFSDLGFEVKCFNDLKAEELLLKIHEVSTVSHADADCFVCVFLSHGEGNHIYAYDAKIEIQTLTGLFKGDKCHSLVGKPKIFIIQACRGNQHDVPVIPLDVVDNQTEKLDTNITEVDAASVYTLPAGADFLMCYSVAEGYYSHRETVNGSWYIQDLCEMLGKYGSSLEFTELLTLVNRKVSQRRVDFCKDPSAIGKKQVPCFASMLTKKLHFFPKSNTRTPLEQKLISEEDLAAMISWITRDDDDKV
The data set is described as follows: Western blot of Htt fragments in COS-7 cells co-transfected with Htt 1-1212AA and full-length caspase-6. It counts as cell-based. The settings on record: 10 uM compound, 24 hr, vs DMSO. The protocol:
(§1) COS-7 cells were co-transfected with the 1212 amino acid HTT fragment (SEQ ID NO: 3) and the full length human caspase-6 enzyme (SEQ ID NO:4). The co-transfected cells were exposed to either 10 uM of the PG3d compound, 3 uM of the Q-VD-Oph pan-caspase inhibitor or were treated with DMSO as a control. An aliquot of the cell lysates were subjected to Western blotting to detect HTT fragments with the Htt antibody 2166 (Millipore) and the presence of caspase-6 was detected using the HD91 antibody (Ehrnhoefer et al, HMG, 2014. 23(3):717-29). The remaining cell lysates (500 ug protein) were immunoprecipitated with 5 ug of Caspase-6 antibody for 16 hrs at 4 C. The immunoprecipitated proteins were then applied to acrylamide gels and immunoblotted to detect either the HTT fragments or the presence of the active caspase 6 enzyme using the antibodies described above.
Cos-7 cells were co-transfected with Htt 1-1212AA (SEQ ID NO:3) and full-length human caspase-6 (SEQ ID NO:6), and exposed to either the pan-caspase inhibitor Q-VD-OPh, the PG3d compound or DMSO as a negative control. As shown in the upper panel of FIG. 9A, control cells that received DMSO alone (lanes labelled n.t.) show the presence of the Htt 1212AA protein and the Htt proteolytic cleavage fragments including the 586, 552 and 513 amino acid fragments. […]

A further data set deals with primary cortical neurons. The data set is described as follows: Neuronal viability during excitotoxic (NMDA) stress, intracellular ATP. It counts as cell-based, FVB/N mice. The conditions noted are these: 10 uM compound; NMDA 25 uM or 50 uM, 20 h. The protocol: Cortical neuronal cultures from FVB mice were prepared as described (Metzler et al, J Neurosci (2007) 27(9):2298). […] The measurement of intracellular ATP was used as an assessment of neuronal viability as described previously (Uribe et al, HMG 2012. 21(9):1954-67) using the Cell-titer glo kit from Promega according to manufacturer's instructions.
It has been previously been shown in HD animal models that neuronal cells expressing mHTT have an increased vulnerability to excitotoxic stress (Graham et al. 2005. Neurobiol. Dis. 21:444-455) and that this may be mediated by caspase 6 (Graham et al. 2006. Cell 6(13):1179-1191 and Uribe et al HMG 2012; 21(9):1954-67). The link between NMDA-induced toxicity and other neurodegenerative diseases has been reviewed by Lipton et al., Nat Rev Drug Discovery 2006. 5:160-170. Therefore, the effect of the presence of the PG-3d compound on the ability of neuronal cells to survive during excitotoxic stress via its ability to inhibit the caspase-6 enzyme was investigated.

Data set [2] addresses T3, interaction between 1212AA Htt and caspase-6 (Homo sapiens, UniProt P55212).
T3 construct: DDK-tag (C); expressed in transfected cells; host or cells: COS-7
T3 sequence (P55212 with tags, fused parts or gaps): T2 sequence (P55212 with tags, fused parts or gaps)
The data set is described as follows: Co-immunoprecipitation of Htt with caspase-6 antibody from COS-7 lysates. It counts as cell-based. The conditions noted are these: 10 uM compound, vs DMSO. The protocol: as §1
As expected, the DMSO control lysates reveal a variety of Htt fragments within the immunocomplexes, including 513AA fragment generated by caspase-3 cleavage, the full-length 1212AA Htt and the 586AA fragment generated by caspase-6 cleavage. When the cells are treated with the pan-caspase inhibitor Q-VD-OPh, the amount of Htt cleavage fragments interacting with caspase-6 is reduced and it is evident that caspase-6 is primarily interacting with the 1212 AA Htt.

As a reminder, the melting point is the temperature of the solid-liquid transition. On to `O=c1oc(C#Cc2ccccc2)nc(O)c1Cc1ccccc1` [PG-3d, 5-Benzyl-4-hydroxy-2-(phenylethynyl)-6H-1,3-oxazin-6-one], for which the melting point is 179 to 181 °C. Also, the “caspase-6 activity (cleaved lamin A)” value on caspase-6 is recorded as “significantly reduces”. In addition, the “level of the 586AA Htt fragment” value in data set [1] was “reduction”. The “cell viability (intracellular ATP)” value with primary cortical neurons is on record as “significant improvement”. Moreover, the “interaction between 1212AA Htt and caspase-6 (co-immunoprecipitated Htt)” value in data set [2] is “significantly reduces”.
